In patent US6555692B1, “Preparation and use of bifunctional molecules having DNA sequence binding specificity” (California Institute of Technology, priority 1996, dated 2003):

Tests used:
5′-TGTCAAAGACA-3′ = experiment: Recognition of 9-11 base pairs (Table 9); type: binding; details: 22° C. and pH 7.0
Excerpt: (§1) Table 9 illustrates recognition of recognition of 9-11 base pairs by ImPyPy-X-ImPyPy-β-Dp.

5′-TGTCAAGACA-3′ = experiment: Recognition of 9-11 base pairs (Table 9); type: binding; details: 22° C. and pH 7.0
Excerpt: as §1

5′-TGTCAGACA-3′ = experiment: Recognition of 9-11 base pairs (Table 9); type: binding; details: 22° C. and pH 7.0
Excerpt: as §1

5′-gcggtTGTCAacccg-3′ = experiment: Recognition of 9-11 base pairs (Table 9); type: binding; details: 22° C. and pH 7.0
Excerpt: as §1

5′-AACCAAGTCTTGGTA-3′ = experiment: Association constants, recognition of 15 base pairs; details: for Ka Match: Table 5, ImPyPy-X-ImImPy-γ-PyPyPy-β-Dp, 24° C., pH 7.0; for Specificity Center mismatch / Specificity Edge mismatch: Table 5; for Specificity Center mismatch: match vs 5′-AACCAACTGTTGGTA-3′; for Specificity Edge mismatch: match vs 5′-AACCAAGTCTTGCGA-3′
[1] = tested on: 5 to 10 base pair sites based on a 5′-TGACA-3′ core sequence; experiment: Footprint titration of three- to eight-ring polyamide dimers (Table 2); type: binding; details: 22° C., pH 7.0; for association constant: mean of at least three footprint titrations
Excerpt: To determine the effect of polyamide length on binding site size, binding affinity, and sequence specificity, a series of six polyamides containing three to eight rings was synthesized. (Kelly, et al. Proc. Natl. Acad. Sci. U.S.A. 93, 6981-6985 (1996).) The series is based on ImPyPy-Dp with pyrrolecarboxamide moieties added sequentially to the C-termini to afford ImPyPyPy-Dp, ImPyPyPyPy-Dp, ImPyPyPyPyPy-Dp, ImPyPyPyPyPyPy-Dp, and ImPyPyPyPyPyPyPy-Dp which are designed to bind 5 to 10 base pair sites, respectively as side-by-side antiparallel dimers. DNA binding sites are based on a 5′-TGACA-3′ core sequence and contain sequential A,T inserts in the center of the binding site that will be recognized by the additional pyrrole carboxamides.

Compound	Ka Match (5′-AACCAAGTCTTGGTA-3′)	Specificity Center mismatch (5′-AACCAAGTCTTGGTA-3′)	Specificity Edge mismatch (5′-AACCAAGTCTTGGTA-3′)	specificity (ratio of match site affinity to affinity of the single base pair mismatch site) [1]	association constant [1]	other results
CN(C)CCCNC(=O)CCNC(=O)c1cc(NC(=O)c2cc(NC(=O)c3nc(NC(=O)CCCCCCNC(=O)c4cc(NC(=O)c5cc(NC(=O)c6nccn6C)cn5C)cn4C)cn3C)cn2C)cn1C [ImPyPy-C7-ImPyPy-β-Dp]	–	–	–	–	–	5′-TGTCAAAGACA-3′ (5′-TGTCAAAGACA-3′): 3 × 10^7; 5′-TGTCAAGACA-3′ (5′-TGTCAAGACA-3′): 1 × 10^8; 5′-TGTCAGACA-3′ (5′-TGTCAGACA-3′): 2 × 10^7; 5′-gcggtTGTCAacccg-3′ (5′-gcggtTGTCAacccg-3′): 7 × 10^7
CN(C)CCCNC(=O)CCNC(=O)c1cc(NC(=O)c2cc(NC(=O)c3cc(NC(=O)CCCNC(=O)c4cc(NC(=O)c5nc(NC(=O)c6nc(NC(=O)CCCCCCCNC(=O)c7cc(NC(=O)c8cc(NC(=O)c9nccn9C)cn8C)cn7C)cn6C)cn5C)cn4C)cn3C)cn2C)cn1C [ImPyPy-C8-ImImPy-γ-PyPyPy-β-Dp, ImPyPy-X-ImImPy-γ-PyPyPy-β-Dp]	2e+08 M⁻¹	10	10	–	–	–
CN(C)CCCNC(=O)c1cc(NC(=O)c2cc(NC(=O)c3nccn3C)cn2C)cn1C [ImPyPy-Dp]	–	–	–	6.5-fold	130000 M⁻¹	–
CN(C)CCCNC(=O)CCNC(=O)c1cc(NC(=O)c2cc(NC(=O)c3cc(NC(=O)CCCNC(=O)c4cc(NC(=O)c5nc(NC(=O)c6nc(NC(=O)CCCCNC(=O)CCNC(=O)c7cc(NC(=O)c8cc(NC(=O)c9nccn9C)cn8C)cn7C)cn6C)cn5C)cn4C)cn3C)cn2C)cn1C [ImPyPy-β-C5-ImImPy-γ-PyPyPy-β-Dp, ImPyPy-X-ImImPy-γ-PyPyPy-β-Dp]	1e+08 M⁻¹	2	2	–	–	–
Cn1cc(NC(=O)c2cc(NC(=O)c3cc(NC(=O)CCCNC(=O)c4cc(NC(=O)c5nc(NC(=O)c6nc(NC(=O)CCNC(=O)CCNC(=O)c7cc(NC(=O)c8cc(NC(=O)c9nccn9C)cn8C)cn7C)cn6C)cn5C)cn4C)cn3C)cn2C)cc1C(=O)NCCCO [ImPyPy-β-β-ImImPy-γ-PyPyPy-C3—OH]	–	–	–	–	–	Ka 5′-AACCAAGTCTTGGTA-3′ (5′-AACCAAGTCTTGGTA-3′; Table 7, C3-OH polyamides, match site): 1 × 10^8; Specificity 5′-AACCAACTGTTGGTA-3′ (5′-AACCAAGTCTTGGTA-3′; Table 7, center mismatch): 3; Specificity 5′-AACCAAGTCTTGCGA-3′ (5′-AACCAAGTCTTGGTA-3′; Table 7, edge mismatch): 3
CN(C)CCCNC(=O)CCNC(=O)c1cc(NC(=O)c2cc(NC(=O)c3cc(NC(=O)CCCNC(=O)c4cc(NC(=O)c5nc(NC(=O)c6nc(NC(=O)CCNC(=O)CCNC(=O)c7cc(NC(=O)c8cc(NC(=O)c9nccn9C)cn8C)cn7C)cn6C)cn5C)cn4C)cn3C)cn2C)cn1C [ImPyPy-β-β-ImImPy-γ-PyPyPy-β-Dp, ImPyPy-X-ImImPy-γ-PyPyPy-β-Dp]	3e+08 M⁻¹	2	2	–	–	–
CN(C)CCCNC(=O)CCNC(=O)c1cc(NC(=O)c2cc(NC(=O)c3cc(NC(=O)CCCNC(=O)c4cc(NC(=O)c5nc(NC(=O)c6nc(NC(=O)CCCNC(=O)c7cc(NC(=O)c8cc(NC(=O)c9nccn9C)cn8C)cn7C)cn6C)cn5C)cn4C)cn3C)cn2C)cn1C [ImPyPy-γ-ImImPy-γ-PyPyPy-β-Dp, ImPyPy-X-ImImPy-γ-PyPyPy-β-Dp]	1e+07 M⁻¹	1	1	–	–	–
CN(C)CCCNC(=O)c1cc(NC(=O)c2cc(NC(=O)c3cc(NC(=O)c4nccn4C)cn3C)cn2C)cn1C [ImPyPyPy-Dp]	–	–	–	5.3-fold	8.5e+06 M⁻¹	–
CN(C)CCCNC(=O)c1cc(NC(=O)c2cc(NC(=O)c3cc(NC(=O)c4cc(NC(=O)c5cc(NC(=O)c6cc(NC(=O)c7nccn7C)cn6C)cn5C)cn4C)cn3C)cn2C)cn1C [ImPyPyPyPyPyPy-Dp]	–	–	–	2.8-fold	4.7e+07 M⁻¹	–
ImPyPyPyPy-Dp	–	–	–	5.7-fold	4.5e+07 M⁻¹	–
ImPyPyPyPyPy-Dp	–	–	–	2.7-fold	5.3e+07 M⁻¹	–
ImPyPyPyPyPyPyPy-Dp	–	–	–	1-fold	<2e+07 M⁻¹	–
